These results are taken from patent US20260053932A1, “COMPOUNDS AND METHODS FOR THE TARGETED DEGRADATION OF ANDROGEN RECEPTOR AND ASSOCIATED METHODS OF USE” (Arvinas Operations, Inc., priority 2020, published 2026).

The subject of this experiment is androgen receptor (AR) in LNCaP and/or VCaP cells. Kind of experiment: Androgen Receptor ELISA assay (AR degradation). The class given is cell-based. Conditions: degradation of AR ELISA in LNCaP and/or VCaP cells; Table 2C; read-out: DC50 Code*. In a few lines:
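VCaP cells grown ≥3 days, then treated 5 h with compound in media containing 1 nM R1881 (10× stock). Cells lysed and AR quantified by sandwich ELISA (mouse AR detection Ab, HRP anti-mouse, TMB). DC50 and Dmax derived from AR degradation.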
In general terms: ELISA stands for enzyme-linked immunosorbent assay.

Molecules are shown by their SMILES.

Broadly, the DC50 is the concentration giving 50% degradation. `Cc1cc(O[C@H]2C(C)(C)[C@H](NC(=O)c3ccc(N4CCC(CN5CCOC[C@@H]5CCOc5ccc6c(c5)C(=O)N(C5CCC(=O)NC5=O)C6=O)CC4)cc3)C2(C)C)cc(C)c1C#N` (stereo partly drawn) [compound 174, N-((1r,3S)-3-(4-cyano-3,5-dimethylphenoxy)-2,2,4,4-tetramethylcyclobutyl)-4-(4-(((3S)-3-(2-((2-(2,6-dioxopiperidin-3-yl)-1,3-dioxoisoindolin-5-yl)oxy)ethyl)morpholino)methyl)piperidin-1-yl)benzamide]: the 50% degradation concentration (DC50) is below 1 nM. On to `Cc1cc(O[C@H]2C(C)(C)[C@H](NC(=O)c3cnc(N4CC5(CC(CN(C(C)C)[C@H]6C[C@H](Oc7ccc8c(c7)C(=O)N(C7CCC(=O)NC7=O)C8=O)C6)C5)C4)cn3)C2(C)C)cc(C)c1C#N` (some centres unmarked) [compound 175, N-((1r,3r)-3-(4-cyano-3,5-dimethylphenoxy)-2,2,4,4-tetramethylcyclobutyl)-5-(6-((((1r,3r)-3-((2-(2,6-dioxopiperidin-3-yl)-1,3-dioxoisoindolin-5-yl)oxy)cyclobutyl) (isopropyl)amino)methyl)-2-azaspiro[3.3]heptan-2-yl)pyrazine-2-carboxamide], for which the DC50 was below 1 nM. The figure for `COc1cc(O[C@H]2C[C@H](N(CC3CCN(c4ncc(C(=O)N[C@H]5C(C)(C)[C@H](Oc6cc(C)c(C#N)c(C)c6)C5(C)C)cn4)CC3)CC(F)(F)F)C2)cc2c1C(=O)N(C1CCC(=O)NC1=O)C2=O` (some centres unmarked) [compound 179, N-((1r,3r)-3-(4-cyano-3,5-dimethylphenoxy)-2,2,4,4-tetramethylcyclobutyl)-2-(4-((((1r,3r)-3-((2-(2,6-dioxopiperidin-3-yl)-7-methoxy-1,3-dioxoisoindolin-5-yl)oxy)cyclobutyl)(2,2,2-trifluoroethyl)amino)methyl)piperidin-1-yl)pyrimidine-5-carboxamide] is below 1 nM; for `COc1cc(O[C@H]2C[C@H](N(CCN3CCOCC3)CC3CCN(c4ccc(C(=O)N[C@H]5C(C)(C)[C@H](Oc6cc(C)c(C#N)c(C)c6)C5(C)C)cc4)CC3)C2)cc2c1C(=O)N(C1CCC(=O)NC1=O)C2=O` (some centres unmarked) [compound 180, N-((1r,3r)-3-(4-cyano-3,5-dimethylphenoxy)-2,2,4,4-tetramethylcyclobutyl)-4-(4-((((1r,3r)-3-((2-(2,6-dioxopiperidin-3-yl)-7-methoxy-1,3-dioxoisoindolin-5-yl)oxy)cyclobutyl)(2-morpholinoethyl)amino)methyl)piperidin-1-yl)benzamide] it is below 1 nM; for `Cc1cc(O[C@H]2C(C)(C)[C@H](NC(=O)c3ccc(CN4CCOC[C@H]4CN4CCN(c5ccc6c(c5)C(=O)N(C5CCC(=O)NC5=O)C6=O)CC4)cc3)C2(C)C)cc(C)c1C#N` (stereo partly drawn) [compound 183, N-((1r,3R)-3-(4-cyano-3,5-dimethylphenoxy)-2,2,4,4-tetramethylcyclobutyl)-4-(((3R)-3-((4-(2-(2,6-dioxopiperidin-3-yl)-1,3-dioxoisoindolin-5-yl)piperazin-1-yl)methyl)morpholino)methyl)benzamide] it is below 1 nM.

On to `COCCN(CC1CCN(c2ccc(C(=O)N[C@H]3C(C)(C)[C@H](Oc4ccc(C#N)c(Cl)c4)C3(C)C)cc2)CC1)[C@H]1C[C@H](Oc2ccc3c(c2)C(=O)N(C2CCC(=O)NC2=O)C3=O)C1` (some centres unmarked) [compound 184, N-((1r,3r)-3-(3-chloro-4-cyanophenoxy)-2,2,4,4-tetramethylcyclobutyl)-4-(4-((((1r,3r)-3-((2-(2,6-dioxopiperidin-3-yl)-1,3-dioxoisoindolin-5-yl)oxy)cyclobutyl)(2-methoxyethyl)amino)methyl)piperidin-1-yl)benzamide], for which the DC50 is below 1 nM.

Regarding `Cc1cc(O[C@H]2C(C)(C)[C@H](NC(=O)c3ccc(N4CC(CN(C(C)C)[C@H]5C[C@H](Oc6ccc7c(c6)C(=O)N(C6CCC(=O)NC6=O)C7=O)C5)C4)cc3)C2(C)C)cc(C)c1C#N` (some centres unmarked) [compound 187, N-((1r,3r)-3-(4-cyano-3,5-dimethylphenoxy)-2,2,4,4-tetramethylcyclobutyl)-4-(3-((((1r,3r)-3-((2-(2,6-dioxopiperidin-3-yl)-1,3-dioxoisoindolin-5-yl)oxy)cyclobutyl) (isopropyl)amino)methyl)azetidin-1-yl)benzamide], the half-maximal degradation concentration (DC50) is below 1 nM. To `Cc1cc(O[C@H]2C(C)(C)[C@H](NC(=O)c3ccc(N4CCC(CN5CCCC[C@@H]5COc5ccc6c(c5)C(=O)N(C5CCC(=O)NC5=O)C6=O)CC4)cc3)C2(C)C)cc(C)c1C#N` (stereo partly drawn) [compound 192, N-((1r,3R)-3-(4-cyano-3,5-dimethylphenoxy)-2,2,4,4-tetramethylcyclobutyl)-4-(4-(((2R)-2-(((2-(2,6-dioxopiperidin-3-yl)-1,3-dioxoisoindolin-5-yl)oxy)methyl)piperidin-1-yl)methyl)piperidin-1-yl)benzamide] belongs below 1 nM. For the molecule `Cc1cc(O[C@H]2C(C)(C)[C@H](NC(=O)c3ccc(N4CCC(CN5CCC[C@@H]5COc5ccc6c(c5)C(=O)N(C5CCC(=O)NC5=O)C6=O)CC4)cc3)C2(C)C)cc(C)c1C#N` (stereo partly drawn) [compound 193, N-((1r,3R)-3-(4-cyano-3,5-dimethylphenoxy)-2,2,4,4-tetramethylcyclobutyl)-4-(4-(((2R)-2-(((2-(2,6-dioxopiperidin-3-yl)-1,3-dioxoisoindolin-5-yl)oxy)methyl)pyrrolidin-1-yl)methyl)piperidin-1-yl)benzamide], the DC50 was below 1 nM. To `CCN(CC1CCN(c2cnc(C(=O)N[C@H]3C(C)(C)[C@H](Oc4ccc(C#N)c(OC)c4)C3(C)C)cn2)CC1)[C@H]1C[C@H](Oc2ccc3c(c2)C(=O)N(C2CCC(=O)NC2=O)C3=O)C1` (some centres unmarked) [compound 194, N-((1r,3r)-3-(4-cyano-3-methoxyphenoxy)-2,2,4,4-tetramethylcyclobutyl)-5-(4-((((1r,3r)-3-((2-(2,6-dioxopiperidin-3-yl)-1,3-dioxoisoindolin-5-yl)oxy)cyclobutyl)(ethyl)amino)methyl)piperidin-1-yl)pyrazine-2-carboxamide] belongs below 1 nM. As for `Cc1cc(O[C@H]2C(C)(C)[C@H](NC(=O)c3ccc(CN4CCOC[C@@H]4CN4CCN(c5ccc6c(c5)C(=O)N(C5CCC(=O)NC5=O)C6=O)CC4)cc3)C2(C)C)cc(C)c1C#N` (stereo partly drawn) [compound 196, N-((1r,3S)-3-(4-cyano-3,5-dimethylphenoxy)-2,2,4,4-tetramethylcyclobutyl)-4-(((3S)-3-((4-(2-(2,6-dioxopiperidin-3-yl)-1,3-dioxoisoindolin-5-yl)piperazin-1-yl)methyl)morpholino)methyl)benzamide], the 50% degradation concentration (DC50) was below 1 nM. `Cc1cc(O[C@H]2C(C)(C)[C@H](NC(=O)c3ccc(N4CCC(CN5CCOC[C@H]5CCOc5ccc6c(c5)C(=O)N(C5CCC(=O)NC5=O)C6=O)CC4)cc3)C2(C)C)cc(C)c1C#N` (stereo partly drawn) [compound 201, N-((1r,3R)-3-(4-cyano-3,5-dimethylphenoxy)-2,2,4,4-tetramethylcyclobutyl)-4-(4-(((3R)-3-(2-((2-(2,6-dioxopiperidin-3-yl)-1,3-dioxoisoindolin-5-yl)oxy)ethyl)morpholino)methyl)piperidin-1-yl)benzamide]: the DC50 was below 1 nM. To `COc1cc(O[C@H]2C(C)(C)[C@H](NC(=O)c3ccc(N4CCC(CN(CCN5CCOCC5)[C@H]5C[C@H](Oc6ccc7c(c6)C(=O)N(C6CCC(=O)NC6=O)C7=O)C5)CC4)cc3)C2(C)C)ccc1C#N` (some centres unmarked) [compound 204, N-((1r,3r)-3-(4-cyano-3-methoxyphenoxy)-2,2,4,4-tetramethylcyclobutyl)-4-(4-((((1r,3r)-3-((2-(2,6-dioxopiperidin-3-yl)-1,3-dioxoisoindolin-5-yl)oxy)cyclobutyl)(2-morpholinoethyl)amino)methyl)piperidin-1-yl)benzamide] belongs below 1 nM; to `Cc1cc(O[C@H]2C(C)(C)[C@H](NC(=O)c3ccc(N4CCC(CN(C(C)C)[C@H]5C[C@H](Oc6ccc7c(c6)C(=O)N([C@H]6CCC(=O)NC6=O)C7=O)C5)CC4)cc3)C2(C)C)cc(C)c1C#N` [compound 205, N-((1r,3r)-3-(4-cyano-3,5-dimethylphenoxy)-2,2,4,4-tetramethylcyclobutyl)-4-(4-((((1S,3r)-3-((2-((S)-2,6-dioxopiperidin-3-yl)-1,3-dioxoisoindolin-5-yl)oxy)cyclobutyl) (isopropyl)amino)methyl)piperidin-1-yl)benzamide], below 1 nM. To `CCN(CC1CCN(c2cnc(C(=O)N[C@H]3C(C)(C)[C@H](Oc4cc(C)c(C#N)c(C)c4)C3(C)C)cn2)CC1)[C@H]1C[C@H](Oc2ccc3c(c2)C(=O)N(C2CCC(=O)NC2=O)C3=O)C1` (some centres unmarked) [compound 206, N-((1r,3r)-3-(4-cyano-3,5-dimethylphenoxy)-2,2,4,4-tetramethylcyclobutyl)-5-(4-((((1r,3r)-3-((2-(2,6-dioxopiperidin-3-yl)-1,3-dioxoisoindolin-5-yl)oxy)cyclobutyl) (ethyl)amino)methyl)piperidin-1-yl)pyrazine-2-carboxamide] belongs below 1 nM. The figure for `COc1cc(O[C@H]2C(C)(C)[C@H](NC(=O)c3cnc(N4CCC(CN(CCN5CCOCC5)[C@H]5C[C@H](Oc6ccc7c(c6)C(=O)N(C6CCC(=O)NC6=O)C7=O)C5)CC4)cn3)C2(C)C)ccc1C#N` (some centres unmarked) [compound 209, N-((1r,3r)-3-(4-cyano-3-methoxyphenoxy)-2,2,4,4-tetramethylcyclobutyl)-5-(4-((((1r,3r)-3-((2-(2,6-dioxopiperidin-3-yl)-1,3-dioxoisoindolin-5-yl)oxy)cyclobutyl)(2-morpholinoethyl)amino)methyl)piperidin-1-yl)pyrazine-2-carboxamide] is below 1 nM; for `COc1cc(O[C@H]2C[C@H](N(CCN3CCOCC3)CC3CCN(c4cnc(C(=O)N[C@H]5C(C)(C)[C@H](Oc6cc(C)c(C#N)c(C)c6)C5(C)C)cn4)CC3)C2)cc2c1C(=O)N(C1CCC(=O)NC1=O)C2=O` (some centres unmarked) [compound 210, N-((1r,3r)-3-(4-cyano-3,5-dimethylphenoxy)-2,2,4,4-tetramethylcyclobutyl)-5-(4-((((1r,3r)-3-((2-(2,6-dioxopiperidin-3-yl)-7-methoxy-1,3-dioxoisoindolin-5-yl)oxy)cyclobutyl)(2-morpholinoethyl)amino)methyl)piperidin-1-yl)pyrazine-2-carboxamide] it is below 1 nM.
